Experimental data reported in ChEMBL document CHEMBL1201862, “PubChem BioAssay data set” (2004).
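1) Cells in 96-well plates. 2) Compound, 48 h, 5 concentrations. 3) Linear interpolation between surrounding doses. 4) Unreached endpoint = highest concentration. GI50 is the concentration that inhibits growth by half.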 The source made the active and inactive calls. Cut-off read from the data, not from the text of the source: active = GI50 up to about 1.1 µM and inactive = higher.

What was measured:
Test in all cases: inhibition of tumour cell growth, NCI panel, 48 h
[1] = tested on: 786-0
[2] = tested on: A549
[3] = tested on: ACHN
[4] = tested on: BT-549
[5] = tested on: CCRF-CEM
[6] = tested on: COLO 205
[7] = tested on: EKVX
[8] = tested on: HCC 2998
[9] = tested on: HCT-116
[10] = tested on: HCT-15
[11] = tested on: HL-60
[12] = tested on: HOP-62
[13] = tested on: HOP-92
[14] = tested on: HT-29
[15] = tested on: Hs-578T
[16] = tested on: IGROV-1
[17] = tested on: K562
[18] = tested on: KM12
[19] = tested on: LOX IMVI
[20] = tested on: M14
[21] = tested on: MCF7
[22] = tested on: MDA-MB-231
[23] = tested on: MDA-MB-435
[24] = tested on: MDA-N
[25] = tested on: MOLT-4
[26] = tested on: Malme-3M
[27] = tested on: NCI-H226
[28] = tested on: NCI-H23
[29] = tested on: NCI-H522
[30] = tested on: NCI/ADR-RES
[31] = tested on: OVCAR-3
[32] = tested on: OVCAR-4
[33] = tested on: OVCAR-5
[34] = tested on: OVCAR-8
[35] = tested on: PC-3
[36] = tested on: RPMI-8226
[37] = tested on: RXF 393
[38] = tested on: SF-268
[39] = tested on: SF-295
[40] = tested on: SF-539
[41] = tested on: SK-MEL-28
[42] = tested on: SK-MEL-2
[43] = tested on: SK-MEL-5
[44] = tested on: SK-OV-3
[45] = tested on: SN12C
[46] = tested on: SNB-19
[47] = tested on: SNB-75
[48] = tested on: SR
[49] = tested on: SW-620
[50] = tested on: T47D
[51] = tested on: TK-10
[52] = tested on: U-251
[53] = tested on: UACC-257
[54] = tested on: UACC-62
[55] = tested on: UO-31
[56] = tested on: CAKI-1
[57] = tested on: DU-145
[58] = tested on: NCI-H460
[59] = tested on: A498

Clc1cc2nc(C3CCCO3)[nH]c2cc1Cl (configuration not stated)
GI50 [1]: > 100 µM (inactive)
GI50 [2]: 54.6 µM (inactive)
GI50 [3]: > 100 µM (inactive)
GI50 [4]: 26.2 µM (inactive)
GI50 [5]: 68.4 µM (inactive)
GI50 [6]: 37.1 µM (inactive)
GI50 [7]: 87.5 µM (inactive)
GI50 [8]: 76.4 µM (inactive)
GI50 [9]: 39.2 µM (inactive)
GI50 [10]: 31.6 µM
GI50 [11]: 37.7 µM (inactive)
GI50 [12]: > 100 µM (inactive)
GI50 [13]: 85.3 µM (inactive)
GI50 [14]: 33.7 µM (inactive)
GI50 [15]: 40.9 µM (inactive)
GI50 [16]: 61.9 µM (inactive)
GI50 [17]: 38.5 µM (inactive)
GI50 [18]: 32.7 µM (inactive)
GI50 [19]: 35.4 µM (inactive)
GI50 [20]: 72.9 µM (inactive)
GI50 [21]: 29.2 µM (inactive)
GI50 [22]: > 100 µM (inactive)
GI50 [23]: 28.2 µM (inactive)
GI50 [24]: 20.1 µM (inactive)
GI50 [25]: 52 µM (inactive)
GI50 [26]: > 100 µM (inactive)
GI50 [27]: > 100 µM (inactive)
GI50 [28]: 34.4 µM (inactive)
GI50 [29]: 20.4 µM (inactive)
GI50 [30]: 43.5 µM (inactive)
GI50 [31]: 32.5 µM (inactive)
GI50 [32]: 46.8 µM (inactive)
GI50 [33]: > 100 µM (inactive)
GI50 [34]: 57.9 µM (inactive)
GI50 [35]: 42.7 µM (inactive)
GI50 [36]: 72.8 µM (inactive)
GI50 [37]: 66.5 µM (inactive)
GI50 [38]: 67 µM (inactive)
GI50 [39]: 57.1 µM (inactive)
GI50 [40]: > 100 µM (inactive)
GI50 [41]: 78 µM (inactive)
GI50 [42]: > 100 µM (inactive)
GI50 [43]: 35.9 µM (inactive)
GI50 [44]: 69.2 µM (inactive)
GI50 [45]: > 100 µM (inactive)
GI50 [46]: > 100 µM (inactive)
GI50 [47]: 30.1 µM (inactive)
GI50 [48]: 37.6 µM (inactive)
GI50 [49]: 45.8 µM (inactive)
GI50 [50]: 46.2 µM (inactive)
GI50 [51]: > 100 µM (inactive)
GI50 [52]: > 100 µM (inactive)
GI50 [53]: > 100 µM (inactive)
GI50 [54]: 45.8 µM (inactive)
GI50 [55]: 16.9 µM (inactive)

Cc1cccc2c(N)c3cccc(C(=O)NCC[N+](C)(C)[O-])c3nc12
GI50 [1]: 2.46 µM (inactive)
GI50 [2]: 1.24 µM (inactive)
GI50 [3]: 2.83 µM (inactive)
GI50 [4]: 15.2 µM (inactive)
GI50 [56]: 3.42 µM (inactive)
GI50 [5]: 2.49 µM (inactive)
GI50 [6]: 9.57 µM (inactive)
GI50 [57]: 3.02 µM (inactive)
GI50 [7]: 15.6 µM (inactive)
GI50 [8]: 10.2 µM (inactive)
GI50 [9]: 13.2 µM (inactive)
GI50 [10]: 11.3 µM
GI50 [11]: 4.05 µM (inactive)
GI50 [12]: 3.61 µM (inactive)
GI50 [13]: 10.5 µM (inactive)
GI50 [14]: 6.01 µM (inactive)
GI50 [15]: 5.37 µM (inactive)
GI50 [16]: 8.39 µM (inactive)
GI50 [17]: 3.13 µM (inactive)
GI50 [18]: > 100 µM (inactive)
GI50 [19]: 10.4 µM (inactive)
GI50 [20]: 19.2 µM (inactive)
GI50 [21]: 2.1 µM (inactive)
GI50 [22]: 20.4 µM (inactive)
GI50 [23]: 16.8 µM (inactive)
GI50 [24]: 14.2 µM (inactive)
GI50 [25]: 0.542 µM (active)
GI50 [26]: 12.7 µM (inactive)
GI50 [27]: 3.05 µM (inactive)
GI50 [28]: 3.76 µM (inactive)
GI50 [58]: 0.538 µM (active)
GI50 [30]: 6.21 µM (inactive)
GI50 [31]: 16.1 µM (inactive)
GI50 [32]: 10.3 µM (inactive)
GI50 [33]: 5.32 µM (inactive)
GI50 [34]: 8.61 µM (inactive)
GI50 [35]: 13.5 µM (inactive)
GI50 [36]: 9.44 µM (inactive)
GI50 [37]: 12.6 µM (inactive)
GI50 [38]: 1.96 µM (inactive)
GI50 [39]: 6.76 µM (inactive)
GI50 [40]: 6.82 µM (inactive)
GI50 [41]: 17.3 µM (inactive)
GI50 [42]: 67.5 µM (inactive)
GI50 [43]: 22.8 µM (inactive)
GI50 [44]: 14 µM (inactive)
GI50 [45]: 3.64 µM (inactive)
GI50 [46]: 7.87 µM (inactive)
GI50 [47]: 1.32 µM (inactive)
GI50 [49]: 5.53 µM (inactive)
GI50 [50]: 13.8 µM (inactive)
GI50 [51]: 21.8 µM (inactive)
GI50 [52]: 4 µM (inactive)
GI50 [53]: 20.6 µM (inactive)
GI50 [54]: 8.99 µM (inactive)
GI50 [55]: 21.7 µM (inactive)

CC(C)(C)c1cc(C(C)(C)C)c(SSc2c(C(C)(C)C)cc(C(C)(C)C)c(O)c2O)c(O)c1O
GI50 [1]: 6.4 µM (inactive)
GI50 [59]: 14 µM (inactive)
GI50 [2]: 6.75 µM (inactive)
GI50 [3]: 11.4 µM (inactive)
GI50 [4]: 13.8 µM (inactive)
GI50 [56]: 11.5 µM (inactive)
GI50 [5]: 2.5 µM (inactive)
GI50 [6]: 11.5 µM (inactive)
GI50 [7]: 16.4 µM (inactive)
GI50 [9]: 10.9 µM (inactive)
GI50 [10]: 6.19 µM
GI50 [11]: 3.46 µM (inactive)
GI50 [13]: 17.7 µM (inactive)
GI50 [14]: 13.2 µM (inactive)
GI50 [15]: 10.5 µM (inactive)
GI50 [16]: 12 µM (inactive)
GI50 [17]: 6.43 µM (inactive)
GI50 [18]: 12.6 µM (inactive)
GI50 [19]: 9.64 µM (inactive)
GI50 [20]: 11.7 µM (inactive)
GI50 [21]: 10.3 µM (inactive)
GI50 [22]: 14.7 µM (inactive)
GI50 [23]: 4.3 µM (inactive)
GI50 [24]: 10.4 µM (inactive)
GI50 [25]: 2.67 µM (inactive)
GI50 [26]: 21.4 µM (inactive)
GI50 [27]: 15 µM (inactive)
GI50 [28]: 10.3 µM (inactive)
GI50 [58]: 3.89 µM (inactive)
GI50 [29]: 3.92 µM (inactive)
GI50 [30]: 19.1 µM (inactive)
GI50 [32]: 3.55 µM (inactive)
GI50 [33]: 15.8 µM (inactive)
GI50 [34]: 12.3 µM (inactive)
GI50 [35]: 12.4 µM (inactive)
GI50 [36]: 9.29 µM (inactive)
GI50 [37]: 16.4 µM (inactive)
GI50 [38]: 10.1 µM (inactive)
GI50 [41]: 16.3 µM (inactive)
GI50 [42]: 14.4 µM (inactive)
GI50 [43]: 11.7 µM (inactive)
GI50 [45]: 10.9 µM (inactive)
GI50 [46]: 11.7 µM (inactive)
GI50 [47]: 14.8 µM (inactive)
GI50 [48]: 2.94 µM (inactive)
GI50 [49]: 4.99 µM (inactive)
GI50 [50]: 4.32 µM (inactive)
GI50 [52]: 10.5 µM (inactive)
GI50 [53]: 9.95 µM (inactive)
GI50 [54]: 5.7 µM (inactive)
GI50 [55]: 6.18 µM (inactive)
